Measurements taken from the NIST ThermoML archive (doi:10.1021/je900632q).

Assay: xn = mol fraction of the nth substance listed
Conditions: 101 kPa, Liquid

CCCCn1cc[n+](C)c1.N#CN=C=[N-] [1-butyl-3-methylimidazolium dicyanamide] + O
Conditions | mass density [kg/m3] | viscosity [mPa·s]
278.15 K, x2 = 0 | 1075.8 | 82.07
278.15 K, x2 = 0.059 | 1075.3 | 74.2
278.15 K, x2 = 0.1963 | 1074.3 | 58.7
278.15 K, x2 = 0.2736 | 1072.8 | 48.94
278.15 K, x2 = 0.35 | 1071.1 | 37.6
278.15 K, x2 = 0.3974 | 1069.4 | 31.98
278.15 K, x2 = 0.4831 | 1066.2 | 23.22
288.15 K, x2 = 0 | 1069.4 | 48.93
288.15 K, x2 = 0.059 | 1068.9 | 44.99
288.15 K, x2 = 0.1963 | 1067.8 | 36.45
288.15 K, x2 = 0.2736 | 1066.4 | 30.87
288.15 K, x2 = 0.35 | 1064.6 | 24.28
288.15 K, x2 = 0.3974 | 1062.9 | 20.88
288.15 K, x2 = 0.4831 | 1059.6 | 15.38
298.15 K, x2 = 0 | 1063.1 | 31.8
298.15 K, x2 = 0.059 | 1062.5 | 29.55
298.15 K, x2 = 0.1963 | 1061.4 | 24.4
298.15 K, x2 = 0.2736 | 1059.9 | 20.94
298.15 K, x2 = 0.35 | 1059.1 | 16.75
298.15 K, x2 = 0.3974 | 1056.3 | 14.52
298.15 K, x2 = 0.4831 | 1052.9 | 10.8
308.15 K, x2 = 0 | 1056.8 | 21.79
308.15 K, x2 = 0.059 | 1056.2 | 20.6
308.15 K, x2 = 0.1963 | 1055 | 17.29
308.15 K, x2 = 0.2736 | 1053.6 | 15
308.15 K, x2 = 0.35 | 1051.6 | 12.16
308.15 K, x2 = 0.3974 | 1049.8 | 10.61
308.15 K, x2 = 0.4831 | 1046.2 | 7.951
318.15 K, x2 = 0 | 1050.6 | 15.88
318.15 K, x2 = 0.059 | 1050.1 | 15.09
318.15 K, x2 = 0.1963 | 1048.7 | 12.82
318.15 K, x2 = 0.2736 | 1047.3 | 11.22
318.15 K, x2 = 0.35 | 1045.2 | 9.198
318.15 K, x2 = 0.3974 | 1043.3 | 8.072
318.15 K, x2 = 0.4831 | 1039.6 | 6.072
328.15 K, x2 = 0 | 1044.4 | 12.06
328.15 K, x2 = 0.059 | 1043.9 | 11.49
328.15 K, x2 = 0.1963 | 1042.4 | 9.885
328.15 K, x2 = 0.2736 | 1041 | 8.702
328.15 K, x2 = 0.35 | 1038.8 | 7.202
328.15 K, x2 = 0.3974 | 1036.9 | 6.346
328.15 K, x2 = 0.4831 | 1033 | 4.792
338.15 K, x2 = 0 | 1038.2 | 9.475
338.15 K, x2 = 0.059 | 1037.7 | 9.047
338.15 K, x2 = 0.1963 | 1036.2 | 7.852
338.15 K, x2 = 0.2736 | 1034.7 | 6.95
338.15 K, x2 = 0.35 | 1032.4 | 5.798
338.15 K, x2 = 0.3974 | 1030.5 | 5.126
338.15 K, x2 = 0.4831 | 1026.4 | 3.884
348.15 K, x2 = 0 | 1032.1 | 7.643
348.15 K, x2 = 0.059 | 1031.5 | 7.314
348.15 K, x2 = 0.1963 | 1030 | 6.397
348.15 K, x2 = 0.2736 | 1028.5 | 5.688
348.15 K, x2 = 0.35 | 1026.1 | 4.777
348.15 K, x2 = 0.3974 | 1024.1 | 4.237
348.15 K, x2 = 0.4831 | 1019.8 | 3.223
358.15 K, x2 = 0 | 1025.8 | 6.304
358.15 K, x2 = 0.059 | 1025.3 | 6.048
358.15 K, x2 = 0.1963 | 1023.8 | 5.322
358.15 K, x2 = 0.2736 | 1022.3 | 4.748
358.15 K, x2 = 0.35 | 1019.8 | 4.007
358.15 K, x2 = 0.3974 | 1017.7 | 3.577
358.15 K, x2 = 0.4831 | 1013.2 | 2.711
